In patent US20230104487A1, “11-(4-CHLOROPHENYL)-4-(2,3-DIHYDRO-1H-INDOLE-1-CARBONYL)-3,11-DIMETHYL-5,10,DIOXATRICYCLO[7.4.0.0,2,6,]TRIDECA-1,3,6,8-TETRAEN-13-ONE AND DERIVATIVES AS DESTABILIZER OF CRY1 FOR THE TREATMENT OF CIRCADIAN RHYTHM ASSOCIATED DISEASES AND DISORDERS” (KOC UNIVERSITESI, priority 2019, published 2023):
Entries after “also recorded” stand apart in the source; their conditions may differ.

Assays:
U2-OS cells = test: Cell cytotoxicity test (MTT); format: cell-based, human; conditions: dose dependent
Method: Human osteosarcoma U2-OS cell lines were used for the cytotoxicity assay. Cells were seeded in triplicate to clear 96-well plates with 4000 cells/well then grown for 48 h. Cells were treated with molecules at desired concentrations (final DMSO concentration 0.5%) in DMEM. Cells were incubated with molecules for 48 h. Cell viability was measured by adding tetrazolium dye 3-[4,5-dimethylthiazol-2-yl]-2,5 diphenyl tetrazolium bromide (MTT) which is converted to insoluble purple color formazan as a result of the mitochondrial activity. To measure the purple color after incubating cells with MTT reagent medium was replaced with DMSO:EtOH (50:50) mixture for 4 hours and absorbance of wells were measured at 570 nm by the spectrophotometer. Cells treated with 5% final DMSO concentration (known as toxic to cells) as […] controls.
Initially, toxicity of selected molecules was assessed by MTT using immortalized human osteosarcoma (U2-OS) cells at concentrations of 20 μM, 10 μM and, 2.5 μM. Molecules with relative cell viability less than 90% at 2.5 μM were eliminated. […] In this assay the effect of the 14 molecules were measured according to the CRYL::LUC decay rate. […] Then cells were treated with cycloheximide (CHX) to inhibit the protein synthesis and bioluminescence was recorded for 18 h. […]

CRY2 = biological target: T1, CRY2 (Mus musculus, UniProt Q9R194); test: Pull-down assay with biotinylated molecule, CRY2-HIS-MYC; format: binding; conditions: 50 μM bFORMULA I, 100 μM FORMULA I competitor
T1 construct: expressed in transfected cells; host or cells: HEK293T (lysate)
T1 sequence (Q9R194 1-592): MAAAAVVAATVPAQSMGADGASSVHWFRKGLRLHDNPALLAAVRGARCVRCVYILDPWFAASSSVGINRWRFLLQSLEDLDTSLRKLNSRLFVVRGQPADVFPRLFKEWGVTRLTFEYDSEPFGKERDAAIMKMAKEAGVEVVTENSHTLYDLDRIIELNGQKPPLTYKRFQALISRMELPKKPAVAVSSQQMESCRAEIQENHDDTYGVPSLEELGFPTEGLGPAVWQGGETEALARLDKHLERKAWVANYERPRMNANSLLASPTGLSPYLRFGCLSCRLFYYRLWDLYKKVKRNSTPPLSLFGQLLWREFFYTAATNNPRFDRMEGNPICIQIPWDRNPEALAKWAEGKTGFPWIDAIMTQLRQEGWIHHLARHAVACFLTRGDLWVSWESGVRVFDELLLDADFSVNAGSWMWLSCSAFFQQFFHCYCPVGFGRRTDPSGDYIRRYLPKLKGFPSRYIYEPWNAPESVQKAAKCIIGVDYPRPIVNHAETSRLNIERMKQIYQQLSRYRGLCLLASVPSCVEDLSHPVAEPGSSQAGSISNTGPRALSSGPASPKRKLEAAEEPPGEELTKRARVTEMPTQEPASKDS
Method: (§1) 10 μg of Cry1-pcDNA4, Cry2-pcDNA4 or Cry1-T5-pcDNA4 plasmids expressing His and Myc at the C-terminal of CRYs were transfected to HEK293T cell. After 48 h of transfection cells were harvested and lysed in lysis buffer (50 mM Tris pH 7.4, 2 mM EDTA, 1 mM MgCl2, 0.2% NP-40 (v/v), 0.1% sodium deoxycholate (w/v), 1 mM sodium orthovanadate, 1 mM sodium fluoride, and protease inhibitor cocktail (Thermo Scientific)). Lysates were incubated for 10 minutes on ice then mixed gently and incubated for another 10 minutes on ice. Then lysate was centrifuged for 10 minutes at 7000 g at 4° C. 5% of the supernatant was kept for input analysis. Remaining supernatant was divided to three and mixed with 2×binding buffer (100 mM Tris-HCl pH 7.4, 300 mM NaCl, 0.2% NP-40 (v/v), 2 mM sodium orthovanadate, 2 mM sodium fluoride, and protease inhibitor) with 1:1 ratio, incubated with rotation having either of these: a) DMSO, b) biotinylated molecule, c) biotinylated molecule and the competitor for 2 h. During this period NeutrAvidin Agarose resin (Thermo Scientific) was equilibrated with lysis buffer by mixing for 5 minutes via rotation at 4° C. three times. After each mix period, resins were centrifuged at 2500 g at 4° C. for 2 minutes and supernatant was discarded. […] Pulled-down samples were analyzed via western blot.

CRY1 = biological target: T2, CRY1 (Mus musculus, UniProt P97784); test: Pull-down assay with biotinylated molecule, CRY1-HIS-MYC; format: binding; conditions: 50 μM bFORMULA I, 100 μM FORMULA I competitor
T2 sequence (P97784 1-606): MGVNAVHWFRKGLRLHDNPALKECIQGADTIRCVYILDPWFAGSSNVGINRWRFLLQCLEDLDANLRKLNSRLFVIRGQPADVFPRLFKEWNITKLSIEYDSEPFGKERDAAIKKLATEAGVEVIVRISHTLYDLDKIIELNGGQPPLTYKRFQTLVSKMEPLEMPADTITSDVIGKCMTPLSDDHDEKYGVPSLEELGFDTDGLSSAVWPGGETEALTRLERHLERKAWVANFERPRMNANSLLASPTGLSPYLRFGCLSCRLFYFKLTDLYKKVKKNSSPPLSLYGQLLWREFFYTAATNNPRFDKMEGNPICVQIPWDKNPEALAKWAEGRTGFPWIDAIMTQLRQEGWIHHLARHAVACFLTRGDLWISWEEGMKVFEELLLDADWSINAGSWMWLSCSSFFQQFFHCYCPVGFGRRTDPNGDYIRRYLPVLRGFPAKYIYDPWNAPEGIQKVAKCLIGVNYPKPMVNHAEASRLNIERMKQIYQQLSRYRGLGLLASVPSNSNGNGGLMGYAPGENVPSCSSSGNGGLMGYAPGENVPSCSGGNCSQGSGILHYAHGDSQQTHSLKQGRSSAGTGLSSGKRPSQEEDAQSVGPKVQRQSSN
Method: as §1

Cc1c(C(=O)N2CCc3ccccc32)oc2ccc3c(c12)C(=O)CC(C)(c1ccc(Cl)cc1)O3 (stereo not drawn) [FORMULA I, 11-(4-chlorophenyl)-4-(2,3-dihydro-1H-indole-1-carbonyl)-3,11-dimethyl-5,10,dioxatricyclo[7.4.0.0,2,6,]trideca-1,3,6,8-tetraen-13-one]
toxicity on U2-OS cells (U2-OS cells): no effect on the stability of LUC and any toxic effect | physical binding to CRY2 (pull-down) (CRY2): does not bind to CRY2 | physical binding to CRY1 (pull-down) (CRY1): physically binds to CRY1; also recorded: binds to PHR of CRY1
